Data: patent US8394971B2, “Indole derivatives as selective androgen receptor modulators (SARMS)” (Janssen Pharmaceutica N.V., priority 2004, dated 2013)
“And” between values parts separate entries of the source, which are not always exact repeats. Equal values may be shown once.

Each compound was assayed on testosterone-enhanced ventral prostate and seminal vesicle weights in castrated male Sprague Dawley rats (assay: Ventral Prostate and Seminal Vesicle Weight In Vivo Assay). Conditions: immature castrated rats; once daily for five days, usually orally at 40 mg/kg, with testosterone propionate 2 mg/kg s.c.
Design: species or system rat
Description: Immature (approximately 50 g) castrated male Sprague Dawley rats (Charles River) were treated once daily for five days with test compound (usually given orally at 40 mg/kg in a volume of 0.3 mL, in 30% cyclodextrin or 0.5% methylcellulose vehicle) and with testosterone propionate (given subcutaneously by injection at the nape of the neck at 2 mg/kg, in a volume of 0.1 mL in sesame oil). On the sixth day, the rats were euthanized by asphyxiation in carbon dioxide. Ventral prostates and seminal vesicles were removed and their wet weights determined.
A test compound was said to be “active” if the non weight adjusted prostate weight was ≦40 mg or the % Inhibition prostate weight, body weight adjusted was ≧40% @2 mg/day dosage.
In the case of `CC(O)(CS(=O)(=O)CC(F)(F)F)c1[nH]c2cc([N+](=O)[O-])c(C(F)(F)F)cc2c1Cl` (stereo not drawn) [compound 207], the “active / inactive (inhibition of testosterone-enhanced prostate weight)” value is reported as “active”.
`CC(O)(COc1cccc([N+](=O)[O-])c1)c1cc2cc(C#N)c(C(F)(F)F)cc2[nH]1` (stereo not drawn) [Compound #428, 2-[1-Hydroxy-1-methyl-2-(3-nitro-phenoxy)-ethyl]-6-trifluoromethyl-1H-indole-5-carbonitrile] was tested, and the “active / inactive (inhibition of testosterone-enhanced prostate weight)” value was “inactive”.
In the case of `CCSCC(O)(CC)c1cc2cc(Cl)c(C(F)(F)F)cc2[nH]1` (racemic) [compound 181], the “active / inactive (inhibition of testosterone-enhanced prostate weight)” value is reported as “active”.
For `CCSCC(C)(OC)c1cc2cc([N+](=O)[O-])c(C(F)(F)F)cc2[nH]1` (stereo not drawn) [compound 167], the “active / inactive (inhibition of testosterone-enhanced prostate weight)” value was “active”.
In the case of `CC(O)(c1cc2cc(C#N)c(C(F)(F)F)cc2n1CC#N)C(F)(F)F` (racemic) [compound 331], the “active / inactive (inhibition of testosterone-enhanced prostate weight)” value is reported as “active”.
In the case of `COCn1c(C(C)(O)C(F)(F)F)cc2cc(C#N)c(C(F)(F)F)cc21` (racemic) [compound 332], the “active / inactive (inhibition of testosterone-enhanced prostate weight)” value is reported as “active”.
With `CCSCC(C)(O)c1cc2cc([N+](=O)[O-])c(C(F)(F)F)cc2[nH]1` (racemic) [compound 153] the “active / inactive (inhibition of testosterone-enhanced prostate weight)” value was “inactive”.
For `CCSCC(C)(O)c1[nH]c2cc(C(F)(F)F)c(C#N)cc2c1CC` (racemic) [compound 344], the “active / inactive (inhibition of testosterone-enhanced prostate weight)” value was “active”.
With `CC(O)(c1cc2cc(C#N)c(C(F)(F)F)cc2[nH]1)C(F)(F)F` (stereo not drawn) [Compound #335, 2-(2,2,2-Trifluoro-1-hydroxy-1-methyl-ethyl)-6-trifluoromethyl-1H-indole-5-carbonitrile] the “active / inactive (inhibition of testosterone-enhanced prostate weight)” value was “active”.
`CCSCC(C)(O)Cc1cc2cc([N+](=O)[O-])c(C(F)(F)F)cc2[nH]1` (stereo not drawn) [compound 10] was tested, and the “active / inactive (inhibition of testosterone-enhanced prostate weight)” value was “inactive”.
`CSCC(C)(O)c1cc2cc(Cl)c(C(F)(F)F)cc2n1S(C)(=O)=O` (stereo not drawn) [compound 134] was tested, and the “active / inactive (inhibition of testosterone-enhanced prostate weight)” value was “inactive”.
In the case of `CC(O)(c1[nH]c2cc(C(F)(F)F)c(C#N)cc2c1Cl)C(F)(F)F` (single isomer, unassigned) [compound 345], the “active / inactive (inhibition of testosterone-enhanced prostate weight)” value is reported as “active”.
With `CCSCC(C)(CO)c1cc2cc([N+](=O)[O-])c(C(F)(F)F)cc2[nH]1` (stereo not drawn) [compound 11] the “active / inactive (inhibition of testosterone-enhanced prostate weight)” value was “inactive”.
In the case of `CCSCC(O)c1[nH]c2cc(C(F)(F)F)c(C#N)cc2c1I` (racemic) [compound 411], the “active / inactive (inhibition of testosterone-enhanced prostate weight)” value is reported as “inactive”.
With `Cc1c(C(C)(C)O)[nH]c2cc(C(F)(F)F)c(C#N)cc12` [compound 289] the “active / inactive (inhibition of testosterone-enhanced prostate weight)” value was “active”.
With `CC(O)(c1[nH]c2cc(C(F)(F)F)c(C#N)cc2c1C#C[Si](C)(C)C)C(F)(F)F` (single isomer, unassigned) [compound 347] the “active / inactive (inhibition of testosterone-enhanced prostate weight)” value was “active”.
With `CC(C)(O)c1[nH]c2cc(C(F)(F)F)c([N+](=O)[O-])cc2c1Cl` [compound 275] the “active / inactive (inhibition of testosterone-enhanced prostate weight)” value was “active”.
In the case of `CCSCC(O)(CSCC)c1cc2cc([N+](=O)[O-])c(C(F)(F)F)cc2[nH]1` [compound 13], the “active / inactive (inhibition of testosterone-enhanced prostate weight)” value is reported as “inactive”.
`CCSCC(C)(O)c1cc2cc(C#N)c(C(F)(F)F)cc2n1CC` (racemic) [compound 243] was tested, and the “active / inactive (inhibition of testosterone-enhanced prostate weight)” value was “active”.
In the case of `CSCC(O)c1cc2cc(C#N)c(C(F)(F)F)cc2[nH]1` (racemic) [compound 408], the “active / inactive (inhibition of testosterone-enhanced prostate weight)” value is reported as “inactive”.
For `O=[N+]([O-])c1cc2cc(C3(O)CCSC3)[nH]c2cc1C(F)(F)F` (stereo not drawn) [compound 18], the “active / inactive (inhibition of testosterone-enhanced prostate weight)” value was “inactive”.
For `CC(C)(O[Si](C)(C)C)c1cc2cc([N+](=O)[O-])c(C(F)(F)F)cc2n1S(C)(=O)=O` [compound 269], the “active / inactive (inhibition of testosterone-enhanced prostate weight)” value was “inactive”.
In the case of `CCc1c(C(C)(O)CS(=O)(=O)CC)[nH]c2cc(C(F)(F)F)c(C#N)cc12` (single isomer, unassigned) [compound 354], the “active / inactive (inhibition of testosterone-enhanced prostate weight)” value is reported as “active”.
In the case of `C#Cc1c(C(C)(O)CSCC)[nH]c2cc(C(F)(F)F)c(C#N)cc12` (racemic) [compound 326], the “active / inactive (inhibition of testosterone-enhanced prostate weight)” value is reported as “inactive”.
For `CCSCC(C)(O)c1cc2cc(C#N)c(OC)cc2[nH]1` (racemic) [compound 445], the “active / inactive (inhibition of testosterone-enhanced prostate weight)” value was “inactive”.
In the case of `CCSCC(C)(O)c1cc2cc(C#N)c(C(F)(F)F)cc2n1CC(F)(F)F` (racemic) [compound 237], the “active / inactive (inhibition of testosterone-enhanced prostate weight)” value is reported as “active”.
`CC(O)(COc1ccc(C#N)cc1)c1cc2cc(C#N)c(C(F)(F)F)cc2[nH]1` (stereo not drawn) [Compound #426, 2-[2-(4-Cyano-phenoxy)-1-hydroxy-1-methyl-ethyl]-6-trifluoromethyl-1H-indole-5-carbonitrile] was tested, and the “active / inactive (inhibition of testosterone-enhanced prostate weight)” value was “inactive”.
In the case of `CC(O)(c1cc2cc(C#N)c(C(F)(F)F)cc2[nH]1)C(F)(F)F` (stereo not drawn) [Compound #334, 2-(2,2,2-Trifluoro-1-hydroxy-1-methyl-ethyl)-6-trifluoromethyl-1H-indole-5-carbonitrile], the “active / inactive (inhibition of testosterone-enhanced prostate weight)” value is reported as “active”.
`CCSCC(C)(O)c1cc2nc(C#N)ccc2[nH]1` (racemic) [compound 6] was tested, and the “active / inactive (inhibition of testosterone-enhanced prostate weight)” value was “inactive”.
`CC[S+]([O-])CC(C)(O)c1[nH]c2cc(C(F)(F)F)c(C#N)cc2c1C` (mixture of isomers) [compound 245] was tested, and the “active / inactive (inhibition of testosterone-enhanced prostate weight)” value was “inactive”.
In the case of `CCSCC(C)(O)c1c(C)c2cc(C#N)c(C(F)(F)F)cc2n1C` (single isomer, unassigned) [compound 317], the “active / inactive (inhibition of testosterone-enhanced prostate weight)” value is reported as “inactive”.
For `CC(O)(C[S+]([O-])c1ccc(F)cc1)c1cc2cc(Cl)c(C(F)(F)F)cc2[nH]1` (stereo not drawn) [compound 113], the “active / inactive (inhibition of testosterone-enhanced prostate weight)” value was “inactive”.

What follows are compounds tested against T1, androgen receptor (adenovirus AdEasy+rAR in L929 cells) (Rattus norvegicus, UniProt P15207) (assay: L929 Androgen Receptor Functional Assay, Adenovirus Transduction). Conditions: L929 agonist testing; 3000 nM.
T1 construct: expressed in transfected cells
T1 sequence (P15207 1-902): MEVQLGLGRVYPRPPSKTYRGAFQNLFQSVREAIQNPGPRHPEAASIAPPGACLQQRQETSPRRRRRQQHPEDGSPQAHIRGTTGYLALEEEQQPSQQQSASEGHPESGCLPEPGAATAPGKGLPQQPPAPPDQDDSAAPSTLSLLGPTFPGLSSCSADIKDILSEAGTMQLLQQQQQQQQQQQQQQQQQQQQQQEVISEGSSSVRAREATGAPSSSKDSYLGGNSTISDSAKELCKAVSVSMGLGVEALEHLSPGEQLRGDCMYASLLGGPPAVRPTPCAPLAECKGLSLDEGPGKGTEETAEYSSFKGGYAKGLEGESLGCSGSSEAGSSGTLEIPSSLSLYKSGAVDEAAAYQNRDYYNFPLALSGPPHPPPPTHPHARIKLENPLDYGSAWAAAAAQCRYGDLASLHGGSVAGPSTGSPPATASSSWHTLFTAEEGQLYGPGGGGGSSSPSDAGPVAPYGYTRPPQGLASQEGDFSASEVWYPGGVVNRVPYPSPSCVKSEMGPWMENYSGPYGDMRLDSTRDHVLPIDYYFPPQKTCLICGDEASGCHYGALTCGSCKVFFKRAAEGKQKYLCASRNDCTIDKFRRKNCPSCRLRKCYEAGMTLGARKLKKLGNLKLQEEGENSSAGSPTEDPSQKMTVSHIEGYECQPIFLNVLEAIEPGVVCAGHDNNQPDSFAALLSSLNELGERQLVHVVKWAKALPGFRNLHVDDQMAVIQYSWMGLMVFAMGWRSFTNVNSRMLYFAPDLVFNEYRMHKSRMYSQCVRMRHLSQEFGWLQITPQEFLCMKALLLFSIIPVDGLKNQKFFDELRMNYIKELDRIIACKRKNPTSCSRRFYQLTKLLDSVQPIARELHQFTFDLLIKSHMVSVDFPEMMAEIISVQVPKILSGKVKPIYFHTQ
Assay type: cell-based
Description: L929 cells were plated in 96-well plates at 20,000 cells per well, in DMEM/F12 (GIBCO) containing 10% (v/v) charcoal-treated fetal bovine serum (Hyclone) and lacking phenol red. The plates were then incubated overnight at 37° C. in 5% (v/v) humidified CO2.
Test compound dilutions were prepared in 100% (v/v) DMSO, if necessary. Each dilution was made to 1250× the final desired assay concentration.
First, 2 mL of DMEM/F12 lacking phenol red was pipetted into the wells of a 2-mL 96-well assay block. Next, 4 μL of the 1250× test compound dilutions were pipetted into each well of the assay block. The mixtures within the well were then carefully mixed by pipette.
In a 15 mL or 50 mL sterile centrifuge tube, a 2.5 nM (2.5×) dilution of R1881 (methyl-trienolone) in DMEM/F12 lacking phenol red was prepared.
In a second 15 mL or 50 mL centrifuge tube a solution containing an equal volume of DMEM to the first and an equal volume of 100% (v/v) DMSO to the volume of R1881 used in the first tube was prepared.
In a 15 mL or 50 mL sterile centrifuge tube, a dilution in DMEM/F12 of the adenovirus AdEasy+rAR at an moi of 1:500 per well was prepared.
The medium was removed from the 96-well plates by inversion and dried, inverted, very briefly. As soon as possible after medium removal, 40 μL of the diluted unlabeled test compound was added to each well, in duplicate. To each well designated for antagonist testing was added 40 μL of the 2.5 nM R1881 dilution to the wells for antagonist testing. To each well designated for agonist testing was added 40 μL of the DMSO dilution. Then 20 μL of the diluted adenovirus were added to all wells. The plates were incubated for 48 hours at 37° C. in 5% (v/v) humidified CO2.
To each well was added 100 μL of Steady-Glo luciferase assay substrate (Promega) and the plates were placed on a rotary shaker for 1 min. The plates were then incubated at room temperature in the dark for one hour. The contents of each well were then transferred to a white microtiter plate (Packard) and read on a Luminoskan Ascent (Thermo Lab Systems).
L929 AR percent activity was determined by testing dilutions of the test compound using a concentration of 3000 nM unless otherwise noted. L929 percent inhibition was determined by testing dilutions of the test compound using a concentration of 3000 nM. […] Luciferase activity per well were measured and EC50s and IC50s determined by linear regression.
For `CC(O)(CSc1ccc(N)cc1)c1cc2cc(Cl)c(C(F)(F)F)cc2n1S(C)(=O)=O` (racemic) [compound 125], the “% Activity” value was −5%.
For `CC(O)(CSCC(F)(F)F)c1cc2cc(C#N)c(C(F)(F)F)cc2[nH]1` (racemic) [compound 211], the “% Activity” value was −1%.

Same assay, conditions: L929 agonist testing; 3000 nM; 3 µM
For `CC(O)(CS(=O)(=O)CC(F)(F)F)c1[nH]c2cc([N+](=O)[O-])c(C(F)(F)F)cc2c1Cl` (stereo not drawn) [compound 207], the “% Activity” value was 1% and −1%.
`CSCC(C)(O)c1cc2cc([N+](=O)[O-])c(C(F)(F)F)cc2[nH]1` (single isomer, unassigned) [compound 144] was tested, and the “% Activity” value was 0%.
